Measurements: ChEMBL document CHEMBL1201862, “PubChem BioAssay data set” (2004)
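Cells were grown in 96-well plates and exposed to each compound for 48 hours at five concentrations; endpoints were interpolated linearly between bracketing concentrations, or set to the highest concentration if not reached. GI50 is the concentration that inhibits growth by half.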 The source made the active and inactive calls. Cut-off read from the data, not from the text of the source: active = GI50 up to about 1.1 µM and inactive = higher.

Key:
Test in all cases: inhibition of tumour cell growth, NCI panel, 48 h
DMS-273 = test system: DMS-273
KM-20L2 = test system: KM-20L2
DMS-114 = test system: DMS-114
XF498 = test system: XF498
RXF 631 = test system: RXF 631
LXFL 529 = test system: LXFL 529
SNB-78 = test system: SNB-78
DLD-1 = test system: DLD-1
HOP-18 = test system: HOP-18

Measured: GI50

C=C1c2c(cc3c(c2O)c(=O)c2ccccc2n3C)OC1(C)C
inactive: DMS-273 > 100 µM | KM-20L2 8.71 µM | DMS-114 99.8 µM | XF498 28.6 µM | RXF 631 > 100 µM | LXFL 529 > 100 µM | SNB-78 37.2 µM | DLD-1 > 100 µM | HOP-18 9.79 µM

COC(=O)CC(CC(=O)C(=O)OC)C(=O)OC (configuration not stated)
inactive: KM-20L2 > 100 µM | LXFL 529 > 100 µM | SNB-78 > 100 µM | DLD-1 > 100 µM

O=C1CCCC(=O)N1CCc1c[nH]c2ccccc12
inactive: DMS-273 > 100 µM | KM-20L2 > 100 µM | DMS-114 > 100 µM | XF498 > 100 µM | RXF 631 > 100 µM | LXFL 529 > 100 µM | SNB-78 > 100 µM | DLD-1 > 100 µM

O=C(NC(Cc1ccc(I)cc1)C(=O)O)c1ccc(I)cc1 (configuration not stated)
inactive: DMS-273 94.8 µM | KM-20L2 > 94.8 µM | DMS-114 35.8 µM | XF498 > 66.4 µM | SNB-78 > 89.3 µM | DLD-1 > 100 µM | HOP-18 > 100 µM

COc1ccccc1C1C(Cl)C(=O)N1n1cnc2ccccc2c1=O (configuration not stated)
inactive: DMS-273 > 100 µM | KM-20L2 > 100 µM | DMS-114 > 100 µM | XF498 > 100 µM | LXFL 529 > 100 µM | SNB-78 > 100 µM | DLD-1 > 100 µM | HOP-18 39.6 µM

COC(=O)N/N=C(/CC1(O)C(=O)Nc2ccc([N+](=O)[O-])cc21)c1ccccc1 (configuration not stated)
inactive: DMS-273 67.8 µM | KM-20L2 > 100 µM | DMS-114 41.9 µM | XF498 19.4 µM | LXFL 529 36.8 µM | SNB-78 20.9 µM | DLD-1 46.7 µM

Fc1ccccc1C1CC(C(c2ccccc2)c2ccccc2)=Nc2ccccc2S1 (configuration not stated)
inactive: DMS-273 4.76 µM | KM-20L2 6.53 µM | DMS-114 6.85 µM | XF498 13.7 µM | RXF 631 8.04 µM | LXFL 529 4.23 µM | DLD-1 5.41 µM | HOP-18 16.2 µM

COc1cc(C2C(C(=O)O)=C(COC(C)=O)Oc3cc4c(cc32)OCO4)cc(OC)c1OC (configuration not stated)
inactive: DMS-273 > 100 µM | KM-20L2 > 100 µM | DMS-114 > 100 µM | XF498 > 100 µM | RXF 631 > 100 µM | SNB-78 > 100 µM | HOP-18 > 100 µM

NC(=O)NNC/C(Cl)=C(\Cl)C(=O)O
inactive: DMS-273 > 100 µM | KM-20L2 > 100 µM | DMS-114 > 100 µM | XF498 > 100 µM | LXFL 529 > 100 µM | SNB-78 > 100 µM | DLD-1 > 100 µM | HOP-18 > 100 µM

c1c2c(cc(-n3nnc4c3CCCCCC4)c1-n1nnc3c1CCCCCC3)CCCCCC2
inactive: DMS-273 2.99 µM | XF498 1.9 µM | RXF 631 10.1 µM | SNB-78 13.6 µM

COc1ccccc1Cc1nc(-c2ccccc2)nn(C2OC(COC(C)=O)C(OC(C)=O)C(OC(C)=O)C2OC(C)=O)c1=S (configuration not stated)
inactive: DMS-273 > 39.2 µM | KM-20L2 29.1 µM | DMS-114 27.6 µM | XF498 1.86 µM | SNB-78 18.2 µM | DLD-1 > 31.3 µM | HOP-18 27.9 µM

COc1ccc(/C=C2\CCNC2=O)cc1
inactive: DMS-273 > 100 µM | KM-20L2 > 100 µM | DMS-114 > 100 µM | XF498 > 100 µM | SNB-78 > 100 µM | DLD-1 > 100 µM | HOP-18 > 100 µM

Cn1c(=O)c2c3oc(=O)cc(O)c3c(=O)n3c4ccccc4n(c1=O)c23
inactive: DMS-273 31.5 µM | XF498 23.8 µM | RXF 631 46.6 µM | LXFL 529 34.8 µM | SNB-78 37 µM | DLD-1 35.8 µM | HOP-18 36.5 µM

O=NN1CCN=C1c1ccc([N+](=O)[O-])cc1
inactive: DMS-273 > 100 µM | KM-20L2 > 100 µM | XF498 > 100 µM | LXFL 529 > 100 µM | SNB-78 > 100 µM | DLD-1 > 100 µM

COc1cc2c(cc1OC)/C(=C\c1ccccc1N)C(=O)OC2
inactive: DMS-273 10.7 µM | KM-20L2 19.1 µM | DMS-114 16.3 µM | RXF 631 9.75 µM | LXFL 529 4.65 µM | DLD-1 15 µM | HOP-18 13.8 µM

Cc1cc2c(cc1C)N1Cc3c(ccc(C)c3C)N(C2)C1.Cc1cc2c(cc1C)N1Cc3cc(C)c(C)cc3N(C2)C1
inactive: DMS-273 > 100 µM | KM-20L2 52 µM | DMS-114 > 100 µM | XF498 > 100 µM | LXFL 529 > 100 µM | SNB-78 > 100 µM | DLD-1 > 100 µM | HOP-18 > 100 µM

Cc1nc2c(sc(=S)n2-c2ccccc2)c(=O)[nH]1
inactive: LXFL 529 > 100 µM | DLD-1 > 100 µM | HOP-18 > 100 µM

CCCCCCCCC(O)c1ccc(/C=C\C(O)CCCC(=O)O)s1 (configuration not stated)
inactive: DMS-273 > 100 µM | KM-20L2 > 100 µM | DMS-114 > 100 µM | XF498 > 100 µM | LXFL 529 > 100 µM | SNB-78 > 100 µM | DLD-1 > 100 µM | HOP-18 > 100 µM

COc1cc(NC(C)CCCN)c2ncccc2c1 (configuration not stated) [PRIMAQUINE PHOSPHATE]
inactive: DMS-273 > 100 µM | KM-20L2 57.5 µM | DMS-114 37.7 µM | XF498 35 µM | RXF 631 > 91.2 µM | LXFL 529 60.7 µM | SNB-78 > 100 µM | DLD-1 76.6 µM | HOP-18 > 36.1 µM
